The text below walks through data of PMC5218480 (PLoS ONE, 2017).

The subject of this test is MV-4-11 cells. Kind of test: Gene expression microarray analysis (Affymetrix PrimeView) and GSEA. The test is classed as cell-based, human. Also noted: RFU PODN (11730768_x_at) / Fold change /veh PODN (11730768_x_at) / RFU LINC00158 (11744669_a_at) / Fold change /veh LINC00158 (11744669_a_at) / RFU DUSP10 (11751237_a_at) / Fold change /veh DUSP10 (11751237_a_at) / RFU ID3 (11757404_x_at) / Fold change /veh ID3 (11757404_x_at) / RFU PLEKHG5 (11737974_s_at) / Fold change /veh PLEKHG5 (11737974_s_at) / RFU LRRC4B (11730491_at) / Fold change /veh LRRC4B (11730491_at) / RFU GIMAP4 (11747438_a_at) / Fold change /veh GIMAP4 (11747438_a_at) / RFU KRT8 (11758183_x_at) / Fold change /veh KRT8 (11758183_x_at) / RFU CNN1 (11734310_a_at) / Fold change /veh CNN1 (11734310_a_at) / RFU VPS37D (11726825_at) / Fold change /veh VPS37D (11726825_at) / RFU C10orf10 (11716522_x_at) / Fold change /veh C10orf10 (11716522_x_at) / RFU KIR2DL2 /// KIR2DL4 /// KIR2DL5A /// KIR2DL5B /// KIR2DS1 /// KIR2DS2 /// KIR2DS3 /// KIR2DS4 /// KIR3DL3 /// KIR3DL3 /// KIR3DS1 (11738374_at) / Fold change /veh KIR2DL2 /// KIR2DL4 /// KIR2DL5A /// KIR2DL5B /// KIR2DS1 /// KIR2DS2 /// KIR2DS3 /// KIR2DS4 /// KIR3DL3 /// KIR3DL3 /// KIR3DS1 (11738374_at) / RFU C1QL1 (11718748_at) / Fold change /veh C1QL1 (11718748_at) / RFU TMPRSS4 (11747572_a_at) / Fold change /veh TMPRSS4 (11747572_a_at) / RFU HAMP (11756126_x_at) / Fold change /veh HAMP (11756126_x_at) / RFU RNFT2 (11725882_a_at) / Fold change /veh RNFT2 (11725882_a_at) / RFU NR4A2 (11747474_a_at) / Fold change /veh NR4A2 (11747474_a_at) / RFU ABCC12 (11746883_a_at) / Fold change /veh ABCC12 (11746883_a_at) / RFU TMEM136 (11760407_x_at) / Fold change /veh TMEM136 (11760407_x_at) / RFU CLDN22 /// WWC2 (11732394_at) / Fold change /veh CLDN22 /// WWC2 (11732394_at) / RFU HLA-DPB1 (11760878_x_at) / Fold change /veh HLA-DPB1 (11760878_x_at) / RFU SPINT1 (11716480_a_at) / Fold change /veh SPINT1 (11716480_a_at) / RFU GAP43 (11754022_s_at) / Fold change /veh GAP43 (11754022_s_at) / RFU A4GNT (11735810_at) / Fold change /veh A4GNT (11735810_at) / RFU PRB3 (11715151_x_at) / Fold change /veh PRB3 (11715151_x_at) / RFU TUBB4B (11761932_at) / Fold change /veh TUBB4B (11761932_at) / RFU CAPN14 (11732068_a_at) / Fold change /veh CAPN14 (11732068_a_at) / RFU TMCC2 (11721928_a_at) / Fold change /veh TMCC2 (11721928_a_at) / RFU IRGQ (11745062_a_at) / Fold change /veh IRGQ (11745062_a_at) / RFU FAM174B (11720279_a_at) / Fold change /veh FAM174B (11720279_a_at) / RFU TMPRSS4 (11748680_a_at) / Fold change /veh TMPRSS4 (11748680_a_at) / RFU FAM212B (11763350_a_at) / Fold change /veh FAM212B (11763350_a_at) / RFU PLEKHG5 (11743358_a_at) / Fold change /veh PLEKHG5 (11743358_a_at) / RFU ZSCAN30 (11745921_a_at) / Fold change /veh ZSCAN30 (11745921_a_at) / RFU CMKLR1 (11741424_a_at) / Fold change /veh CMKLR1 (11741424_a_at) / RFU LOC101060620 /// MAPK8IP1 (11723275_at) / Fold change /veh LOC101060620 /// MAPK8IP1 (11723275_at) / RFU SPTSSB (11747773_x_at) / Fold change /veh SPTSSB (11747773_x_at) / RFU PRSS12 (11739890_at) / Fold change /veh PRSS12 (11739890_at) / RFU BIN1 (11741810_x_at) / Fold change /veh BIN1 (11741810_x_at) / RFU WNT11 (11732464_a_at) / Fold change /veh WNT11 (11732464_a_at) / RFU C10orf10 (11716521_a_at) / Fold change /veh C10orf10 (11716521_a_at) / RFU C5orf56 (11738089_at) / Fold change /veh C5orf56 (11738089_at) / RFU CYB561 (11721691_x_at) / Fold change /veh CYB561 (11721691_x_at) / RFU ANKRD19P (11752326_a_at) / Fold change /veh ANKRD19P (11752326_a_at) / RFU OR2T12 /// OR2T33 /// OR2T8 (11738714_s_at) / Fold change /veh OR2T12 /// OR2T33 /// OR2T8 (11738714_s_at) / RFU VCAN (11748164_a_at) / Fold change /veh VCAN (11748164_a_at) / RFU JSRP1 (11732532_at) / Fold change /veh JSRP1 (11732532_at) / RFU KRTAP10-11 (11738290_x_at) / Fold change /veh KRTAP10-11 (11738290_x_at) / RFU MYO3A (11730013_a_at) / Fold change /veh MYO3A (11730013_a_at) / RFU EBF3 (11725865_a_at) / Fold change /veh EBF3 (11725865_a_at) / RFU CAMK2N1 (11719241_x_at) / Fold change /veh CAMK2N1 (11719241_x_at) / RFU C5orf56 (11738088_a_at) / Fold change /veh C5orf56 (11738088_a_at) / RFU OLFML3 (11715873_a_at) / Fold change /veh OLFML3 (11715873_a_at) / RFU LOC100653217 /// NTM (11731650_a_at) / Fold change /veh LOC100653217 /// NTM (11731650_a_at) / RFU MAPK11 (11762145_a_at) / Fold change /veh MAPK11 (11762145_a_at) / RFU FIZ1 (11724087_x_at) / Fold change /veh FIZ1 (11724087_x_at) / RFU OASL (11726364_x_at) / Fold change /veh OASL (11726364_x_at) / RFU SOX15 (11748057_x_at) / Fold change /veh SOX15 (11748057_x_at) / RFU CD79A (11719716_a_at) / Fold change /veh CD79A (11719716_a_at) / RFU HIST1H1D (11736915_at) / Fold change /veh HIST1H1D (11736915_at) / RFU CASKIN2 (11723855_a_at) / Fold change /veh CASKIN2 (11723855_a_at) / RFU LOC730098 (11760151_x_at) / Fold change /veh LOC730098 (11760151_x_at) / RFU OR4N2 (11742367_at) / Fold change /veh OR4N2 (11742367_at) / RFU PRRT2 (11749266_a_at) / Fold change /veh PRRT2 (11749266_a_at) / RFU SNX32 (11753110_a_at) / Fold change /veh SNX32 (11753110_a_at) / RFU CDHR5 (11726645_a_at) / Fold change /veh CDHR5 (11726645_a_at) / RFU RCAN1 (11760418_a_at) / Fold change /veh RCAN1 (11760418_a_at) / RFU FAM167A (11723789_a_at) / Fold change /veh FAM167A (11723789_a_at) / RFU FAM26E (11764081_at) / Fold change /veh FAM26E (11764081_at) / RFU ISYNA1 (11749810_s_at) / Fold change /veh ISYNA1 (11749810_s_at) / RFU ACY1 (11761880_at) / Fold change /veh ACY1 (11761880_at) / RFU 11764098_at / Fold change /veh 11764098_at / RFU SAMD14 (11745864_x_at) / Fold change /veh SAMD14 (11745864_x_at) / RFU NPB (11741838_a_at) / Fold change /veh NPB (11741838_a_at) / RFU TMPRSS6 (11731388_a_at) / Fold change /veh TMPRSS6 (11731388_a_at) / RFU KRTAP10-2 (11738614_at) / Fold change /veh KRTAP10-2 (11738614_at) / RFU ARHGAP8 /// PRR5-ARHGAP8 (11727945_x_at) / Fold change /veh ARHGAP8 /// PRR5-ARHGAP8 (11727945_x_at) / RFU KRTAP5-7 /// NADSYN1 (11734609_at) / Fold change /veh KRTAP5-7 /// NADSYN1 (11734609_at) / RFU RASL12 (11751679_a_at) / Fold change /veh RASL12 (11751679_a_at) / RFU CDKN2B (11736163_a_at) / Fold change /veh CDKN2B (11736163_a_at) / RFU PRF1 (11729649_at) / Fold change /veh PRF1 (11729649_at) / RFU, ZNF638 /// ZNF638-IT1 / Fold change vs veh, ZNF638 /// ZNF638-IT1 / RFU, PANK3 / Fold change vs veh, PANK3 / RFU, SH3YL1 / Fold change vs veh, SH3YL1 / RFU, ZEB2 / Fold change vs veh, ZEB2 / RFU, NRIP1 / Fold change vs veh, NRIP1 / RFU, PTTG1IP / Fold change vs veh, PTTG1IP / RFU, CAPN2 / Fold change vs veh, CAPN2 / RFU, MED14 / Fold change vs veh, MED14 / RFU, SNORA58 / Fold change vs veh, SNORA58 / RFU, C1orf63 / Fold change vs veh, C1orf63 / RFU, LRRFIP1 / Fold change vs veh, LRRFIP1 / RFU, NDUFAF7 / Fold change vs veh, NDUFAF7 / RFU, SLC12A2 / Fold change vs veh, SLC12A2 / RFU, IBTK / Fold change vs veh, IBTK / RFU, ESF1 / Fold change vs veh, ESF1 / Fold change vs veh, TMEM50B / RFU, TAOK1 / Fold change vs veh, TAOK1 / RFU, ACBD3 / Fold change vs veh, ACBD3 / RFU, TMA16 / Fold change vs veh, TMA16 / RFU, RWDD3 / Fold change vs veh, RWDD3 / RFU, BCAT1 / Fold change vs veh, BCAT1 / RFU, EDEM3 / Fold change vs veh, EDEM3 / RFU, TMEM33 / Fold change vs veh, TMEM33 / RFU, WDR75 / Fold change vs veh, WDR75 / RFU, AHCTF1 / Fold change vs veh, AHCTF1 / RFU, TFRC / Fold change vs veh, TFRC / RFU, ZDHHC17 / Fold change vs veh, ZDHHC17 / RFU, NOM1 / Fold change vs veh, NOM1 / RFU, ARL8B / Fold change vs veh, ARL8B / RFU, ZBTB11 / Fold change vs veh, ZBTB11 / RFU, TAMM41 / Fold change vs veh, TAMM41 / RFU, KIAA1704 /// LOC100996395 / Fold change vs veh, KIAA1704 /// LOC100996395 / RFU, ING1 / Fold change vs veh, ING1 / RFU, TRMT61B / Fold change vs veh, TRMT61B / RFU, FUBP3 / Fold change vs veh, FUBP3 / RFU, TP53 / Fold change vs veh, TP53 / RFU, TNKS2 / Fold change vs veh, TNKS2 / RFU, ZFP14 / Fold change vs veh, ZFP14 / RFU, ACTR2 / Fold change vs veh, ACTR2 / RFU, PPP3R1 / Fold change vs veh, PPP3R1 / RFU, PIK3R1 / Fold change vs veh, PIK3R1 / RFU, HNRNPA1 / Fold change vs veh, HNRNPA1 / RFU, RNF170 / Fold change vs veh, RNF170 / RFU, ZNF28 / Fold change vs veh, ZNF28 / RFU, RNGTT / Fold change vs veh, RNGTT / RFU, OGT / Fold change vs veh, OGT / RFU, BRD1 / Fold change vs veh, BRD1 / RFU, MARS / Fold change vs veh, MARS / RFU, ZNF655 / Fold change vs veh, ZNF655 / RFU, FAHD1 / Fold change vs veh, FAHD1 / RFU, BDP1 / Fold change vs veh, BDP1 / RFU, LRRCC1 / Fold change vs veh, LRRCC1 / RFU, ARID1A / Fold change vs veh, ARID1A / RFU, ZNF146 / Fold change vs veh, ZNF146 / RFU, ZNF330 / Fold change vs veh, ZNF330 / RFU, GPN3 / Fold change vs veh, GPN3 / RFU, C9orf123 / Fold change vs veh, C9orf123 / RFU, N4BP2L2 / Fold change vs veh, N4BP2L2 / RFU, ARFIP1 / Fold change vs veh, ARFIP1 / RFU, FAM179B / Fold change vs veh, FAM179B / RFU, BCL10 / Fold change vs veh, BCL10 / RFU, UHRF1BP1L / Fold change vs veh, UHRF1BP1L / RFU, BET1 / Fold change vs veh, BET1 / RFU, CNOT2 / Fold change vs veh, CNOT2 / RFU, ZNF268 / Fold change vs veh, ZNF268 / Fold change vs veh, ZNF507 / RFU, DGCR2 / Fold change vs veh, DGCR2 / RFU, WDSUB1 / Fold change vs veh, WDSUB1 / Fold change vs veh, HSP90B1 /// MIR3652 / RFU, ADSS / Fold change vs veh, ADSS / RFU, GK / Fold change vs veh, GK / RFU, ZNF148 / Fold change vs veh, ZNF148 / RFU, TAF9 / Fold change vs veh, TAF9 / RFU, SLC1A5 / Fold change vs veh, SLC1A5 / RFU, SLMO2 / Fold change vs veh, SLMO2 / RFU, ABCC4 / Fold change vs veh, ABCC4 / RFU, LOC101060439 /// RAP1B / Fold change vs veh, LOC101060439 /// RAP1B / RFU, RFX7 / Fold change vs veh, RFX7 / RFU, GTPBP10 / Fold change vs veh, GTPBP10 / RFU, CNEP1R1 / Fold change vs veh, CNEP1R1 / RFU, BIVM-ERCC5 /// ERCC5 / Fold change vs veh, BIVM-ERCC5 /// ERCC5 / RFU, ILF3 / Fold change vs veh, ILF3 / RFU 11762660_at / Fold change /veh 11762660_at / RFU VCAN (11757783_s_at) / Fold change /veh VCAN (11757783_s_at) / RFU DDX43 (11728927_at) / Fold change /veh DDX43 (11728927_at) / RFU KRT8 (11758188_x_at) / Fold change /veh KRT8 (11758188_x_at) / RFU NKD1 (11759106_at) / Fold change /veh NKD1 (11759106_at) / RFU SRD5A1 (11742802_a_at) / Fold change /veh SRD5A1 (11742802_a_at) / RFU TPSAB1 /// TPSB2 (11721975_s_at) / Fold change /veh TPSAB1 /// TPSB2 (11721975_s_at) / RFU GSTM3 (11746129_a_at) / Fold change /veh GSTM3 (11746129_a_at) / RFU IL23R (11737362_x_at) / Fold change /veh IL23R (11737362_x_at) / RFU TMEM51 (11727254_a_at) / Fold change /veh TMEM51 (11727254_a_at) / RFU PIWIL2 (11732686_x_at) / Fold change /veh PIWIL2 (11732686_x_at) / RFU ORM1 (11744905_x_at) / Fold change /veh ORM1 (11744905_x_at) / RFU CCDC152 (11743942_at) / Fold change /veh CCDC152 (11743942_at) / RFU ECM1 (11717891_a_at) / Fold change /veh ECM1 (11717891_a_at) / RFU IL23R (11748794_a_at) / Fold change /veh IL23R (11748794_a_at) / RFU TNFAIP8L3 (11732012_x_at) / Fold change /veh TNFAIP8L3 (11732012_x_at) / RFU MBOAT4 (11741988_at) / Fold change /veh MBOAT4 (11741988_at) / RFU 11764193_at / Fold change /veh 11764193_at / RFU TMEM53 (11763286_at) / Fold change /veh TMEM53 (11763286_at) / RFU MAGEB2 (11727129_at) / Fold change /veh MAGEB2 (11727129_at) / RFU TMEM200A (11744735_a_at) / Fold change /veh TMEM200A (11744735_a_at) / RFU CCDC152 (11751479_a_at) / Fold change /veh CCDC152 (11751479_a_at) / RFU FAM211A (11726209_a_at) / Fold change /veh FAM211A (11726209_a_at) / RFU RGS16 (11746705_a_at) / Fold change /veh RGS16 (11746705_a_at) / RFU VCAN (11755009_s_at) / Fold change /veh VCAN (11755009_s_at) / RFU RHOB (11743442_s_at) / Fold change /veh RHOB (11743442_s_at) / RFU RGS16 (11720943_a_at) / Fold change /veh RGS16 (11720943_a_at) / RFU RGS16 (11720944_at) / Fold change /veh RGS16 (11720944_at) / RFU, VPS4B / Fold change vs veh, VPS4B / RFU, CREB1 / Fold change vs veh, CREB1 / RFU, DNAJC13 / Fold change vs veh, DNAJC13 / RFU, GNAQ / Fold change vs veh, GNAQ / RFU, CDK5R1 / Fold change vs veh, CDK5R1 / RFU, ZRANB3 / Fold change vs veh, ZRANB3 / RFU, CUL4A / Fold change vs veh, CUL4A / RFU, CCNY / Fold change vs veh, CCNY / RFU, UFL1 / Fold change vs veh, UFL1 / RFU, COG3 / Fold change vs veh, COG3 / RFU, DIAPH2 / Fold change vs veh, DIAPH2 / RFU, SKA2 / Fold change vs veh, SKA2 / RFU, AFF3 / Fold change vs veh, AFF3 / RFU, LMF1 / Fold change vs veh, LMF1 / RFU, IPO11 / Fold change vs veh, IPO11 / RFU, DFFB / Fold change vs veh, DFFB / RFU, FOXP1 / Fold change vs veh, FOXP1 / RFU, CARD8 / Fold change vs veh, CARD8 / RFU, STRN3 / Fold change vs veh, STRN3 / RFU, ADK / Fold change vs veh, ADK / RFU, RASSF2 / Fold change vs veh, RASSF2 / RFU, WIPF1 / Fold change vs veh, WIPF1 / RFU, LARP1B / Fold change vs veh, LARP1B / RFU, RASA1 / Fold change vs veh, RASA1 / RFU, RB1 / Fold change vs veh, RB1 / RFU, PPFIA1 / Fold change vs veh, PPFIA1 / RFU, MAT2A / Fold change vs veh, MAT2A / RFU, CCT5 / Fold change vs veh, CCT5 / RFU, WDR92 / Fold change vs veh, WDR92 / RFU, CUX1 / Fold change vs veh, CUX1 / RFU, TTC7A / Fold change vs veh, TTC7A / RFU, TMEM135 / Fold change vs veh, TMEM135 / RFU, DEPTOR / Fold change vs veh, DEPTOR / RFU, CPM / Fold change vs veh, CPM / RFU, DNAJB6 / Fold change vs veh, DNAJB6 / RFU, CACNA2D3 / Fold change vs veh, CACNA2D3 / RFU, DTX4 / Fold change vs veh, DTX4 / RFU, TFCP2 / Fold change vs veh, TFCP2 / RFU, GMCL1 /// GMCL1P1 / Fold change vs veh, GMCL1 /// GMCL1P1 / RFU, AEBP2 / Fold change vs veh, AEBP2 / RFU, SNHG1 /// SNORD22 /// SNORD25 /// SNORD26 /// SNORD27 /// SNORD28 /// SNORD29 /// SNORD31 / Fold change vs veh, SNHG1 /// SNORD22 /// SNORD25 /// SNORD26 /// SNORD27 /// SNORD28 /// SNORD29 /// SNORD31 / Fold change (Aza/veh), C12orf56 (ProbeSet 11735607_a_at) / Fold change (ACY-1035/veh), C12orf56 (ProbeSet 11735607_a_at) / Fold change (Aza/veh), FGFR1OP (ProbeSet 11751329_s_at) / Fold change (ACY-1035/veh), FGFR1OP (ProbeSet 11751329_s_at) / Fold change (Aza/veh), VPS36 (ProbeSet 11739960_a_at) / Fold change (ACY-1035/veh), VPS36 (ProbeSet 11739960_a_at) / RFU SYPL1 (11715823_x_at) / Fold change /veh SYPL1 (11715823_x_at) / RFU IGFBP7 (11715501_s_at) / Fold change /veh IGFBP7 (11715501_s_at) / RFU REEP3 (11722064_at) / Fold change /veh REEP3 (11722064_at) / RFU IGLL1 (11728026_x_at) / Fold change /veh IGLL1 (11728026_x_at): dose or concentration left out as unconfirmed. Conditions: MV-4-11 cells, 48 hours.

For the compound `Nc1ncn([C@@H]2O[C@H](CO)[C@@H](O)[C@H]2O)c(=O)n1` [azacitidine], the “RFU RHOB (11743442_s_at)” value was 110.59 RFU.
